This is an account of results in patent US20230115640A1, “BLASTOCYST-LIKE STRUCTURES FROM EXTENDED PLURIPOTENT STEM CELLS” (Salk Institute for Biological Studies, priority 2019, published 2023).

Test [1] has as its system mouse EPS cell aggregates. Briefly: EPS-blastoid formation efficiency (blastocyst-like structures / total cell aggregates) in AggreWell 3D differentiation. The format is cell-based. Particulars: for Nblastoid/Ntotal (%), EPS-blastoid efficiency with treatment of Wnt antagonists: XAV939 5 μM or IWR-1-endo 10 μM added to medium at day 1, five days in blastoid induction medium; for EPS-blastoids formation (effect of WNT antagonists, in words): blastoid induction medium supplemented with antagonist. An excerpt:
To further improve the differentiation conditions, different growth factors, cytokines, and small molecules were included to identify condition(s) that enable the generation of structures mimicking blastocysts (EPS-blastoids), which contain a cavity and an inner cell mass. […] Using this optimized condition, EPS-blastoids consistently emerged three days after cell seeding (FIG. 1D). EPS-blastoids continued to enlarge, reaching an early blastocyst-like size at around day five or day six. To quantify the efficiency of EPS-blastoid formation, the total number of blastocyst-like structures were counted, with this count divided it by the total number of cell aggregates.
EPS colonies were dissociated into single cells by incubation with TrypLE (Thermo Fisher Scientific, 12604-013). Cell resuspension was transferred into a 0.1% gelatin-coated plate and incubated at 37° C. for 30 min to allow irradiated MEF cells attach to the plate. The supernatant containing the EPS cells were collected, filtered through a 40 μm cell strainer, and counted using the TC-10 counter (Bio-Rad, 1450001). AggreWell 400 (STEMCELL Technologies, 34415) was prepared following the manufacturer's instructions. EPS-blastoid basal medium is composed of 25% TSC basal medium (see above), 25% N2B27 basal medium (see above), and 50% KSOM (see above). In some experiments, M16 (Sigma-Aldrich, M7292) was used to replace KSOM. Approximately 6,000 cells (five cells per microwell for 1200 microwells) were resuspended in EPS-blastoid basal medium supplemented with 2 μM ROCK inhibitor Y-27632 (Reagents Direct, 53-B80-50), 12.5 ng/ml rhFGF4 (R&D, 235F4025), 0.5 μg/ml Heparin (Sigma-Aldrich, H3149), 3 μM GSK3 inhibitor CHIR99021 (Reagents Direct, 27-H76), 5 ng/ml BMP4 (Proteintech, HZ-1040), and 0.5 μM A83-01 (Axon Medchem, 1421) and seeded into one well of the 24-well AggreWell plate. The plate was centrifuged at 300g for one minute and transferred into an incubator. The day of cell seeding was counted as day 0 of the process. Medium was removed 24 h later (day 1) and replaced with fresh medium without Y-27632. Additional medium change is optional for the rest of the EPS-blastoid formation process. Starting from day 4, blastoids were manually picked up using a mouth pipette (Sigma-Aldrich, A5177) under a stereomicroscope for analysis or downstream experiments. For testing of the effect of antagonists or inhibitors on EPS-blastoid induction, chemicals were added to the medium at day 1. XAV939 (5 μM; Tocris, 3748) or IWR-1-endo (10 μM; STEMCELL Technologies, 72562) was used to inhibit Wnt signaling. Verteporfin (2 μM; Tocris, 5305) was used to inhibit YAP/TEAD interaction. For testing whether a single EPS cell forms into a blastoid, WT cells and Puromycin+/mcherry+ cells were mixed at a ratio of 10:1 and seeded onto Aggrewell 400 as stated above. Puromycin (0.25 μg/ml; InvivoGen, ant-pr-1) was added to the medium 24 hours later to eliminate helper cells gradually.

A further test concerns EPS cells. Briefly: EPS cell survival on the day of seeding. The format is cell-based, mouse. Conditions: treated on the day of seeding.
The subject of the next test is mouse ESCs. Conditions: He et al., 2008; cited from earlier work.

Several values for one entry are separate records, joined by “and”; a condition that tells them apart may be missing. Equal values may be shown once.

For `Oc1nc(-c2ccc(C(F)(F)F)cc2)nc2c1CSCC2` [XAV939], the “Nblastoid/Ntotal (%), EPS-blastoid efficiency with treatment of Wnt antagonists” value in test [1] (per experiment, listed as XVA939) was 0.3% and 0.28% and 0.45% and 0.41% and 0.8%. In test [1], the “EPS-blastoids formation (effect of WNT antagonists, in words)” value is given as “significantly inhibited”.
On to verteporfin [VP], for which the “Nblastoid/Ntotal (%), EPS-blastoid efficiency with treatment of YAP-TEAD inhibitor” value in test [1] (verteporfin 2 μM added to medium at day 1, five days of blastoid induction, per experiment) was 1.43% and 0.36% and 0.87% and 1.05%.
For `O=C(Nc1cccc2cccnc12)c1ccc(N2C(=O)[C@@H]3[C@H](C2=O)[C@@H]2C=C[C@H]3C2)cc1` [IWR-1-endo], the “Nblastoid/Ntotal (%), EPS-blastoid efficiency with treatment of Wnt antagonists” value in test [1] (per experiment) was 0.28% and 0.41% and 1.23% and 0.81% and 0.42%. Besides, the “EPS-blastoids formation (effect of WNT antagonists, in words)” value in test [1] was “significantly inhibited”.
Consider `C[C@@H](N)[C@H]1CC[C@H](C(=O)Nc2ccncc2)CC1` [Y-27632], for which the “cell survival of EPS cells” value with EPS cells was “enhanced cell survival”.

B1: Wnt-3a (protein, UniProt P56704 19-352, looked up)
Protein Wnt-3a: SYPIWWSLAVGPQYSSLGSQPILCASIPGLVPKQLRFCRNYVEIMPSVAEGIKIGIQECQHQFRGRRWNCTTVHDSLAIFGPVLDKATRESAFVHAIASAGVAFAVTRSCAEGTAAICGCSSRHQGSPGKGWKWGGCSEDIEFGGMVSREFADARENRPDARSAMNRHNNEAGRQAIASHMHLKCKCHGLSGSCEVKTCWWSQPDFRAIGDFLKDKYDSASEMVVEKHRESRGWVETLRPRYTYFKVPTERDLVYYEASPNFCEPNPETGSFGTRDRTCNVSSHGIDGCDLLCCGRGHNARAERRREKCRCVFHWCCYVSCQECTRVYDVHTCK
notes: Wnt agonist protein
On to B1, for which, in the test with mouse ESCs, the “CDX2 (trophoblast transcription factor) expression in mouse ESCs” value is listed as “transiently up-regulates CDX2”.
